# Data as given in patent US11944623B2, “Modulators of Kv3 channels to treat pain” (Autifony Therapeutics Limited, priority 2015, dated 2024).
# How the values were obtained:
# [1] = tested on: rat model of persistent inflammatory pain; assay: Persistent inflammatory pain model (intraplantar FCA): paw withdrawal to mechanical pressure and cold (10° C.), general observations; type: in vivo; conditions: 30 mg/kg oral
# Protocol: (§1) The efficacy of Compounds 1, 2, 3 and 4 was investigated using rat models of neuropathic and/or persistent inflammatory pain.
# (§2) Subjects comprised male, Wistar Hanover rats, 6 animals per group (225±2 g for Compound 1 studies and Compound 2 studies; 214±1 g for Compound 3 studies; 236±1 g for Compound 4 studies).
# (§3) Vehicle (12% Captisol®; 0.5% w/v HPMC and 0.1% w/v Tween-80; 5 ml/kg via the intraperitoneal route) was prepared using autoclaved deionized water not more than one week prior to use.
# (§4) The details of the studies performed are outlined in Table 1.
# (§5) The control for the neuropathic pain model was lamotrigine, administered at 30 mg/kg via oral delivery. The control for the inflammatory pain model was diclofenac, administered at 30 mg/kg via oral delivery. Statistical analysis was performed using one-way ANOVA, and comparisons were performed with time-matched vehicle group using Tukey's HSD test wherein * p<0.05, ** p<0.01, *** p<0.001.
# (§6) Treatment groups were randomised and blinded. Groups of 6 rats were used.
# Mechanical hyperalgesia was examined in a model of persistent inflammatory pain. The hyperalgesia was induced by an intraplantar injection (25 μl) of Freund's Complete Adjuvant (FCA) into the left hind paw.
# To assess the effect of the test compound, paw withdrawal thresholds or latencies were measured on both the ipsilateral (FCA-injected) and contralateral (non-injected) paws, prior to (naïve) and 24 hours following FCA injection (predose), and then at 1, 3, 6 and 24 hours after drug or vehicle administration.
# (§7) Mechanical hyperalgesia was examined in a model of neuropathic pain by measuring paw withdrawal thresholds (PWT) to increasing mechanical force applied to the dorsal surface of the rat paw using an Analgesymeter (Ugo-Basile, Milan) equipped with a wedge-shaped probe (area 1.75 mm^2). Cut-off was set at 250 g and the end-point was taken as withdrawal of the hind paw. Both ipsilateral and contralateral paw withdrawal readings were taken.
# (§8) Cold sensitivity was assessed using a commercially available cold-plate (Ugo Basile, Milan). The cold plate was allowed to stabilize for 5 minutes at the set temperature prior to testing. Paw withdrawal latencies (PWL) were determined with the cold-plate set at 10° C. The animals were lightly restrained and each hind paw in turn placed onto the surface of the cold-plate. The end point was taken as the withdrawal of the paw and recorded as the withdrawal latency for the ipsilateral and the contralateral paw. A maximum cut-off of 30 seconds was used for each paw.
# (§9) In addition to behavioural pain readings, each rat was observed throughout the study for changes in general behaviour.
# (§10) Data were expressed as withdrawal threshold (g) or withdrawal latencies (s) and percentage reversals calculated according to the following formula: […]
# (§11) Statistical analysis was carried out on withdrawal threshold readings using ANOVA with repeated measures followed by Tukey's HSD test. The level for statistical significance was set as p<0.05.
# [2] = tested on: rat model of neuropathic pain; assay: Neuropathic pain model (partial ligation of the sciatic nerve): paw withdrawal to mechanical pressure and cold (10° C.), general observations; type: in vivo
# Protocol: as §1, §2, §3, §4, §5, §6
# Neuropathic pain was induced by partial ligation of the sciatic nerve. Briefly, the rats were anaesthetised (isoflurane/O2 inhalation), the left sciatic nerve exposed at mid-thigh level through a small incision and ⅓ to ½ of the nerve thickness tightly ligated within a 7.0 silk suture. The wound was closed with surgical glue. Animals were allowed to recover and tested 12-15 days following surgery.
# Withdrawal thresholds or latencies were measured on both the ipsilateral (ligated) and contralateral (non-ligated) paws, prior to (predose) and then up to 24 h following drug or vehicle administration.
# Pre-dose behavioural measurements were obtained by measuring paw withdrawals 14 days following nerve ligation; before the initiation of drug treatment. Following treatment, further readings were taken at 1, 3, 6 and 24 hour after administration.
# as §7, §8, §9, §10, §11
# [3] = positive control in Compound 2 study, 3 hours post-dose
# [4] = positive control in Compound 3 study, 3 hours post-dose
# [5] = positive control in Compound 4 study
# [6] = positive control in Compound 2 Study 1, 30 mg/kg oral, 3 hours post-dose
# [7] = positive control in Compound 3 neuropathic study, 30 mg/kg oral, 3 hours post-dose
# [8] = positive control in Study 2 (Compounds 1 and 2), 30 mg/kg oral, 3 hours post-dose
Compound,"peak reversal, mechanical ([1]; positive control in Compound 1 study, 1 hour post-dose) [%]","peak reversal, cold ([1]; positive control in Compound 1 study, 3 hours post-dose) [%]","peak reversal, cold [1, 3] [%]","peak reversal, mechanical [1, 3] [%]","peak reversal, cold [1, 4] [%]","peak reversal, mechanical [1, 4] [%]","reversal, cold [1, 5] [%]","reversal, mechanical [1, 5] [%]","peak reversal, cold ([2]; positive control in Compound 1 Study 1, 30 mg/kg oral, 1 hour post-dose) [%]","peak reversal, mechanical ([2]; positive control in Compound 1 Study 1, 30 mg/kg oral, 3 hours post-dose) [%]","peak reversal, cold [2, 6] [%]","peak reversal, mechanical [2, 6] [%]","peak reversal, cold [2, 7] [%]","peak reversal, mechanical [2, 7] [%]","peak reversal, cold [2, 8] [%]","peak reversal, mechanical [2, 8] [%]"
"O=C(O)Cc1ccccc1Nc1c(Cl)cccc1Cl [diclofenac, reference compound]",64,79,69,66,45,60,50,49,–,–,–,–,–,–,–,–
"Nc1nnc(-c2cccc(Cl)c2Cl)c(N)n1 [lamotrigine, reference compound]",–,–,–,–,–,–,–,–,58,65,58,54,74,61,67,67
